Activity calls are given as the source filed them. The calls are words filed in the database; no cut-off is given here. Non-standard residues stand in square brackets, D forms with d. Residues, ends and D or L forms follow the SMILES beside them. N(1S-Me-propyl)Gly = CC[C@H](C)NCC(=O)O; Nspe = C[C@H](NCC(=O)O)c1ccccc1; Nphe = O=C(O)CNCc1ccccc1; NPrGly = CCCNCC(=O)O; Nlys = NCCCCNCC(=O)O
Assays:
[1] = molecular target: Amyloid-beta precursor protein (Homo sapiens) (UniProt P05067); assay: Inhibition of agitated amyloid beta (1 to 40) (unknown origin) aggregation at 100 uM measured at equilibrium by thioflavin T based fluorometric assay
Sequence of Amyloid-beta precursor protein (Homo sapiens) (P05067 whole entry): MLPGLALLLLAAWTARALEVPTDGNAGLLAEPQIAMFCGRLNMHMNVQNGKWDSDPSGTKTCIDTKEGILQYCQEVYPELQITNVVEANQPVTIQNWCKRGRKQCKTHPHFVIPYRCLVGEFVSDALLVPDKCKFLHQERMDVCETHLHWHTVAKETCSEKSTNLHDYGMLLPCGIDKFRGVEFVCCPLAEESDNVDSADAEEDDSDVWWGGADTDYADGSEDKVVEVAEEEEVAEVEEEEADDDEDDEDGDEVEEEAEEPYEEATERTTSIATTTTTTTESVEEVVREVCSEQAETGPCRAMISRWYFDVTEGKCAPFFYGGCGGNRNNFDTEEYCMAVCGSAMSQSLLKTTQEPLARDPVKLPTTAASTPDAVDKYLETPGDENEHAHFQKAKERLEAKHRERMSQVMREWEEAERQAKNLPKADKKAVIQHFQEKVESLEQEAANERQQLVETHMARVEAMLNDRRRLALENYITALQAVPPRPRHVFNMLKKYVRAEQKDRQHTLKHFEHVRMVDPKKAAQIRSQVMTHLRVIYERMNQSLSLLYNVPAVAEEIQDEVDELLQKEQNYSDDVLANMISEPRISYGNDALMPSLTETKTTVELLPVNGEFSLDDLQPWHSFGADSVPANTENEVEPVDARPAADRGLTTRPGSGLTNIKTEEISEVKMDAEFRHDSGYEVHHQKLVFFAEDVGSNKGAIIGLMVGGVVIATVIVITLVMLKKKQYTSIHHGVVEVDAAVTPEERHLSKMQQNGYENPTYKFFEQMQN

[2] = molecular target: Amyloid-beta precursor protein (Homo sapiens) (UniProt P05067); assay: Inhibition of agitated amyloid beta (1 to 40) (unknown origin) aggregation assessed as increase in lag time at 100 uM by dot blot analysis relative to control
[3] = molecular target: Amyloid-beta precursor protein (Homo sapiens) (UniProt P05067); assay: Inhibition of agitated amyloid beta (1 to 40) (unknown origin) aggregation assessed as reduction in fibrillar aggregates at 100 uM by dot blot analysis
[4] = molecular target: Amyloid-beta precursor protein (Homo sapiens) (UniProt P05067); assay: Inhibition of amyloid beta (1 to 40) (unknown origin) aggregation assessed as absence of fibrillar branching at equilibrium at 100 uM by uranyl acetate staining based transmission electron microscopic analysis
[5] = molecular target: Amyloid-beta precursor protein (Homo sapiens) (UniProt P05067); assay: Inhibition of amyloid beta (1 to 40) (unknown origin) aggregation assessed as reduction in number aggregates at equilibrium at 100 uM after 24 hrs by uranyl acetate staining based transmission electron microscopic analysis
[6] = molecular target: Amyloid-beta precursor protein (Homo sapiens) (UniProt P05067); assay: Inhibition of agitation-induced amyloid beta (1 to 40) (unknown origin) aggregation at 100 uM measured every 45 mins by thioflavin T based fluorometric assay
[7] = molecular target: Amyloid-beta precursor protein (Homo sapiens) (UniProt P05067); assay: Inhibition of amyloid beta (1 to 40) (unknown origin) aggregation assessed as decrease in size of protein aggregation at equilibrium at 100 uM after 24 hrs by uranyl acetate staining based transmission electron microscopic analysis
[8] = molecular target: Amyloid-beta precursor protein (Homo sapiens) (UniProt P05067); assay: Inhibition of agitation-induced amyloid beta (1 to 40) (unknown origin) aggregation assessed as decrease in lag time at 100 uM measured every 30 to 45 mins by dot blot analysis relative to control
[9] = molecular target: Amyloid-beta precursor protein (Homo sapiens) (UniProt P05067); assay: Inhibition of agitation-induced amyloid beta (1 to 40) (unknown origin) aggregation assessed as reduction in fibrillar aggregates at 100 uM measured every 30 to 45 mins by dot blot analysis
[10] = molecular target: Amyloid-beta precursor protein (Homo sapiens) (UniProt P05067); assay: Inhibition of agitation-induced amyloid beta (1 to 40) (unknown origin) aggregation assessed as decrease in lag time at 100 uM by dot blot analysis relative to control
[11] = molecular target: Amyloid-beta precursor protein (Homo sapiens) (UniProt P05067); assay: Inhibition of amyloid beta (1 to 40) (unknown origin) aggregation assessed as circular/bird-nest like aggregate formation at equilibrium at 100 uM after 24 hrs by uranyl acetate staining based transmission electron microscopic analysis
[12] = molecular target: Amyloid-beta precursor protein (Homo sapiens) (UniProt P05067); assay: Inhibition of amyloid beta (1 to 40) (unknown origin) aggregation assessed as increase in surface hydrophobicity at equilibrium by nile red dye-based spectroscopic analysis

Row | Compound | inhibition [1] [%] | fold change (FC) [2] | inhibition [3] [%] | inhibition [4] | inhibition [5] | inhibition [6] [%] | inhibition [7] | fold change (FC) [8] | inhibition [9] [%] | fold change (FC) [10] | inhibition [11] | inhibition [12]
1 | CC[C@H](C)NCC(=O)N(CC(=O)N(CC(=O)N(CC(=O)N(CC(=O)N(CCCCN)CC(=O)N(CC(=O)N(CC(N)=O)[C@@H](C)c1ccccc1)[C@@H](C)CC)[C@@H](C)CC)[C@@H](C)c1ccccc1)[C@@H](C)c1ccccc1)[C@@H](C)c1ccccc1 (H-[N(1S-Me-propyl)Gly][Nspe][Nspe][Nspe][N(1S-Me-propyl)Gly][Nlys][N(1S-Me-propyl)Gly][Nspe]-NH2) | 76.9 | 2.2 | 50.5 | Active | Active |  |  |  |  |  |  | 
2 | CC[C@H](C)N(CC(=O)N(CC(=O)N(CC(=O)N(CC(=O)N(CC(=O)N(CC(=O)N(CC(N)=O)[C@@H](C)c1ccccc1)[C@@H](C)c1ccccc1)[C@@H](C)CC)[C@@H](C)c1ccccc1)[C@@H](C)c1ccccc1)[C@@H](C)CC)C(=O)CNCCCCN (H-[Nlys][N(1S-Me-propyl)Gly][N(1S-Me-propyl)Gly][Nspe][Nspe][N(1S-Me-propyl)Gly][Nspe][Nspe]-NH2) | 83.1 | 2.7 | 46 | Active | Active | 81.2 | Active | < 0.31 | 63.7 | < 0.5 |  | 
3 | CCCN(CC(=O)N(CCC)CC(=O)N(CC(=O)N(CC(=O)N(CCC)CC(=O)N(CC(=O)N(CC(N)=O)Cc1ccccc1)Cc1ccccc1)Cc1ccccc1)Cc1ccccc1)C(=O)CNCCCCN (H-[Nlys][NPrGly][NPrGly][Nphe][Nphe][NPrGly][Nphe][Nphe]-NH2) | 85.6 |  | 72.6 | Active | Active |  |  |  |  |  | Active | Active

Source: ChEMBL document CHEMBL3868597, “Modulating amyloid-β aggregation: The effects of peptoid side chain placement and chirality” (Bioorg Med Chem, 2017)
